The source of these data is article PMC3106281 (Analytical biochemistry, 2010).

For one experiment, the system named is A. baumannii ATCC 19606. It counts as cell-based, Acinetobacter baumannii. The following applies: broth microdilution. (In general: Dilution methods test growth across graded concentrations, often in twofold steps.)
A further experiment concerns K. pneumoniae ATCC 13883. Type of experiment: cell-based, Klebsiella pneumoniae. The note with it: broth microdilution.
For experiment [1], the system named is colistin-resistant K. pneumoniae clinical isolate. It counts as cell-based, Klebsiella pneumoniae. The following applies: broth microdilution.
Experiment [2] deals with colistin-resistant A. baumannii clinical isolate. It counts as cell-based, Acinetobacter baumannii. The following applies: broth microdilution.
For experiment [3], the system named is colistin-resistant P. aeruginosa clinical isolate. Type of experiment: cell-based, Pseudomonas aeruginosa. The note with it: broth microdilution, two replicates.
The conditions of experiment [4]: above the Tc; ref [54]; cited from earlier work.
A short description of experiment [5]: Isothermal titration calorimetry. Type of experiment: binding, Escherichia coli. The note with it: ITC, 37°C. For orientation: In ITC the heat of successive injections is recorded.
For experiment [6] the following is noted: ref [52], cited from earlier work.
A further experiment has as its system bacteria. The following applies: ref [47]; [48]; cited from earlier work.
Experiment [7] can be described thus: Fluorometric assay, purified LPS. Type of experiment: binding. The following applies: E. coli, K. pneumoniae, S. enterica (and P. aeruginosa) LPS.

≈ marks a conversion by molar mass, not a printed value. Like-named read-outs stand apart in the source and are kept apart here. Bridge positions count the residues as written; N and C are the ends. Square brackets hold non-standard residues; d marks the D form. Peptide text beside a SMILES is read from it. * marks the point of attachment. X1 = CC[C@H](C)CCCCC(=O)*; Dab = NCC[C@H](N)C(=O)O A value given as a limit tells only on which side of the number the result lay.

Usually MIC stands for the smallest concentration in the dilution series that meets the test's criterion for growth inhibition. Read a high MIC as a need for much substance. Turning to `CC[C@H](C)CCCCC(=O)N[C@@H](CCN)C(=O)N[C@H](C(=O)N[C@@H](CCN)C(=O)N[C@H]1CCNC(=O)[C@H]([C@@H](C)O)NC(=O)[C@H](CCN)NC(=O)[C@H](CCN)NC(=O)[C@H](CC(C)C)NC(=O)[C@@H](CC(C)C)NC(=O)[C@H](CCN)NC1=O)[C@@H](C)O` [Colistin, colistin] (X1-[Dab]T[Dab][Dab][Dab][dL]L[Dab][Dab]T; lactam 4-C (inferred); N-terminus assumed), the MIC was 1 mg/L (≈ 0.855 µM) against A. baumannii ATCC 19606; 1 mg/L (≈ 0.855 µM) in the experiment with K. pneumoniae ATCC 13883; > 128 mg/L in [1]; 16 mg/L (≈ 13.7 µM) in [2]; > 128 mg/L in experiment [3].
For the compound polymyxin B [PmB], the “Calorimetric reaction with LPS” value in experiment [4] is reported as “endothermic”; in experiment [6] (temperatures ≤30°C, below Tc of LPS) it was “endothermic”; in experiment [6] (≥35°C, above phase transition temperature, [53]) it was “exothermic”. Moreover, the “Absolute peptide concentration in the cell where saturation began” value in experiment [5] (LPS 125 μM, 14th injection (PmB), 18th injection (DPmB3)) was found to be 98 µM. The ΔH1 in [5] (first set of sites, 20 mM HEPES pH 7.0, two-site model) was -6.28 ± 1.7 kJ/mol. Further, the ΔS1 in [5] (first set of sites, calculated from ΔH and ΔG0) is 28.9 kJ/mol. In experiment [5] (second set of sites, 20 mM HEPES pH 7.0, two-site model), the ΔH2 is -50.2 ± 15.5 kJ/mol. The ΔS2 in experiment [5] (second set of sites, calculated from ΔH and ΔG0) is -7.53 kJ/mol.
On to polymyxin B nonapeptide [PBN], for which the Antibacterial activity result in the experiment with bacteria is reported as “negligible antibacterial activity”. In addition, the “Binding affinity for isolated LPS, comparison in words” value in experiment [7] is given as “lowest binding affinity for LPS”.
